Where a name gives a salt, the structure may show the parent alone.
Biological target: T1, CCR2 (Homo sapiens, UniProt P41597)
T1 construct: host or cells: THP-1 (human monocytic cell line)
T1 sequence (P41597 1-360 isoform P41597-2): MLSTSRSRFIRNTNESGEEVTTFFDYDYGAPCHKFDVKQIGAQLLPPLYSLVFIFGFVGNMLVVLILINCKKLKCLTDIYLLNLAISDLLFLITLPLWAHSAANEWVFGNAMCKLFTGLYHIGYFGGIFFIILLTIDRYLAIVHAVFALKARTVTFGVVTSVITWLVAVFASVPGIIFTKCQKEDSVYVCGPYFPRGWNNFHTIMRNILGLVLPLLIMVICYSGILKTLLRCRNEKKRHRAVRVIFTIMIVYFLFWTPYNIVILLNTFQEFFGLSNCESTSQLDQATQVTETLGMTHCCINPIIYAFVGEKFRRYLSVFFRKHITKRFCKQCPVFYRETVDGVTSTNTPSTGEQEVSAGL
Assay: MCP-1 Receptor Binding Assay in THP-1 Cells (125I labeled MCP-1)
Settings: 0.5 nM 125I labeled MCP-1, 2 hours at 30° C., read-out: Inhibition of MCP-1 Binding IC50, CCR2 Binding
Method: Compounds of the invention were subjected to various representative biological tests. […] MCP-1 Receptor Binding Assay in THP-1 Cells
Human monocytic cell line THP-1 cells were obtained from American Type Culture Collection (Manassas, Va., USA). […] The cell density was maintained […].
1 μM cold MCP-1 was used for nonspecific binding.

Row | Compound | IC50 [nM]
1 | COc1ccc(C2(F)CCC(N3CC(NC(=O)CNC(=O)c4cccc(C(F)(F)F)c4)C3)CC2)cn1 (single isomer, unassigned) [Example 64a, N-({1-[4-Fluoro-4-(6-methoxy-pyridin-3-yl)-cyclohexyl]-azetidin-3-ylcarbamoyl}-methyl)-3-trifluoromethyl-benzamide] | 110
2 | COc1ncccc1C1CCC(N2CC(NC(=O)CNC(=O)c3cccc(C(F)(F)F)c3)C2)CC1 (stereo not drawn) [Example 2, N-({1-[4-(2-Methoxy-pyridin-3-yl)-cyclohexyl]-azetidin-3-ylcarbamoyl}-methyl)-3-trifluoromethyl-benzamide] | 210
3 | O=C(CNC(=O)c1cccc(C(F)(F)F)c1)NC1CN(C2CCC(c3ncccc3O)CC2)C1 (stereo not drawn) [Example 3, N-({1-[4-(3-Hydroxy-pyridin-2-yl)-cyclohexyl]-azetidin-3-ylcarbamoyl}-methyl)-3-trifluoromethyl-benzamide] | 24
4 | O=C(CNC(=O)c1cccc(C(F)(F)F)c1)NC1CN(C2CCC(c3ccc(O)cn3)CC2)C1 (stereo not drawn) [Example 4, N-({1-[4-(5-Hydroxy-pyridin-2-yl)-cyclohexyl]-azetidin-3-ylcarbamoyl}-methyl)-3-trifluoromethyl-benzamide hemisuccinate salt] | 13
5 | O=C(CNC(=O)c1cccc(C(F)(F)F)c1)NC1CN(C2CCC(c3cncc(O)c3)CC2)C1 (stereo not drawn) [Example 5, N-({1-[4-(5-Hydroxy-pyridin-3-yl)-cyclohexyl]-azetidin-3-ylcarbamoyl}-methyl)-3-trifluoromethyl-benzamide] | 260
6 | Cc1ccc(O)c(C2CCC(N3CC(NC(=O)CNC(=O)c4cccc(C(F)(F)F)c4)C3)CC2)n1 (stereo not drawn) [Example 6, N-({1-[4-(3-Hydroxy-6-methyl-pyridin-2-yl)-cyclohexyl]-azetidin-3-ylcarbamoyl}-methyl)-3-trifluoromethyl-benzamide] | 50
7 | COc1cc(C2CCC(N3CC(NC(=O)CNC(=O)c4cccc(C(F)(F)F)c4)C3)CC2)ccn1 (stereo not drawn) [Example 7, N-({1-[4-(2-Methoxy-pyridin-4-yl)-cyclohexyl]-azetidin-3-ylcarbamoyl}-methyl)-3-trifluoromethyl-benzamide] | 32
8 | COc1cnccc1C1CCC(N2CC(NC(=O)CNC(=O)c3cccc(C(F)(F)F)c3)C2)CC1 (stereo not drawn) [Example 8, N-({1-[4-(3-Methoxy-pyridin-4-yl)-cyclohexyl]-azetidin-3-ylcarbamoyl}-methyl)-3-trifluoromethyl-benzamide] | 25
9 | O=C(CNC(=O)c1cccc(C(F)(F)F)c1)NC1CN(C2CCC(c3ccncc3O)CC2)C1 (stereo not drawn) [Example 9, N-({1-[4-(3-Hydroxy-pyridin-4-yl)-cyclohexyl]-azetidin-3-ylcarbamoyl}-methyl)-3-trifluoromethyl-benzamide] | 52
10 | O=C(CNC(=O)c1cccc(C(F)(F)F)c1)NC1CN(C2CCC(c3cccnc3O)CC2)C1 (stereo not drawn) [Example 10, N-({1-[4-(2-Hydroxy-pyridin-3-yl)-cyclohexyl]-azetidin-3-ylcarbamoyl}-methyl)-3-trifluoromethyl-benzamide] | 970
11 | O=C(CNC(=O)c1cccc(C(F)(F)F)c1)NC1CN(C2CCC(c3cnccc3O)CC2)C1 (stereo not drawn) [Example 11, N-({1-[4-(4-Hydroxy-pyridin-3-yl)-cyclohexyl]-azetidin-3-ylcarbamoyl}-methyl)-3-trifluoromethyl-benzamide] | 460
12 | O=C(CNC(=O)c1cccc(C(F)(F)F)c1)NC1CN(C2CCC(c3cc(O)ccn3)CC2)C1 (stereo not drawn) [Example 12, N-({1-[4-(4-Hydroxy-pyridin-2-yl)-cyclohexyl]-azetidin-3-ylcarbamoyl}-methyl)-3-trifluoromethyl-benzamide] | > 25000
13 | CC(=O)Nc1ccc(C2CCC(N3CC(NC(=O)CNC(=O)c4cccc(C(F)(F)F)c4)C3)CC2)nc1 (stereo not drawn) [Example 13, N-({1-[4-(5-Acetylamino-pyridin-2-yl)-cyclohexyl]-azetidin-3-ylcarbamoyl}-methyl)-3-trifluoromethyl-benzamide] | 90
14 | CS(=O)(=O)N(c1ccc(C2CCC(N3CC(NC(=O)CNC(=O)c4cccc(C(F)(F)F)c4)C3)CC2)nc1)S(C)(=O)=O (stereo not drawn) [Example 14, N-({1-[4-(5-bis-{Methanesulfonyl}-amino-pyridin-2-yl)-cyclohexyl]-azetidin-3-ylcarbamoyl}-methyl)-3-trifluoromethyl-benzamide] | 280
15 | CS(=O)(=O)Nc1ccc(C2CCC(N3CC(NC(=O)CNC(=O)c4cccc(C(F)(F)F)c4)C3)CC2)nc1 (stereo not drawn) [Example 15, N-({1-[4-(5-Methanesulfonyl-amino-pyridin-2-yl)-cyclohexyl]-azetidin-3-ylcarbamoyl}-methyl)-3-trifluoromethyl-benzamide] | 230
16 | O=C(CNC(=O)c1cccc(C(F)(F)F)c1)NC1CN(C2CCC(c3ccc(NC(=O)C(F)(F)F)cn3)CC2)C1 (stereo not drawn) [Example 16, N-[(1-{4-[5-(2,2,2-Trifluoro-acetylamino)-pyridin-2-yl]-cyclohexyl}-azetidin-3-ylcarbamoyl)-methyl]-3-trifluoromethyl-benzamide] | 95
17 | O=C(CNC(=O)c1cccc(C(F)(F)F)c1)NC1CN(C2CCC(c3ncccc3NC(=O)C(F)(F)F)CC2)C1 (stereo not drawn) [Example 17, N-[(1-{4-[3-(2,2,2-Trifluoro-acetylamino)-pyridin-2-yl]-cyclohexyl}-azetidin-3-ylcarbamoyl)-methyl]-3-trifluoromethyl-benzamide] | 920
18 | CC(=O)Nc1cccnc1C1CCC(N2CC(NC(=O)CNC(=O)c3cccc(C(F)(F)F)c3)C2)CC1 (stereo not drawn) [Example 18, N-({1-[4-(3-Acetylamino-pyridin-2-yl)-cyclohexyl]-azetidin-3-ylcarbamoyl}-methyl)-3-trifluoromethyl-benzamide] | 380
19 | CS(=O)(=O)Nc1cccnc1C1CCC(N2CC(NC(=O)CNC(=O)c3cccc(C(F)(F)F)c3)C2)CC1 (stereo not drawn) [Example 19, N-({1-[4-(3-Methanesulfonylamino-pyridin-2-yl)-cyclohexyl]-azetidin-3-ylcarbamoyl}-methyl)-3-trifluoromethyl-benzamide] | 1900
20 | Nc1ccc(C2CCC(N3CC(NC(=O)CNC(=O)c4cccc(C(F)(F)F)c4)C3)CC2)nc1 (stereo not drawn) [Example 21, N-({1-[4-(5-Amino-pyridin-2-yl)-cyclohexyl]-azetidin-3-ylcarbamoyl}-methyl)-3-trifluoromethyl-benzamide] | 85
21 | O=C(CNC(=O)c1cccc(C(F)(F)F)c1)NC1CN(C2CCC(c3cccc(NC(=O)C(F)(F)F)n3)CC2)C1 (stereo not drawn) [Example 24, N-[(1-{4-[6-(2,2,2-Trifluoro-acetylamino)-pyridin-2-yl]-cyclohexyl}-azetidin-3-ylcarbamoyl)-methyl]-3-trifluoromethyl-benzamide] | 60
22 | N#CNc1cccc(C2CCC(N3CC(NC(=O)CNC(=O)c4cccc(C(F)(F)F)c4)C3)CC2)n1 (stereo not drawn) [Example 25, N-({1-[4-(6-Cyanoamino-pyridin-2-yl)-cyclohexyl]-azetidin-3-ylcarbamoyl}-methyl)-3-trifluoromethyl-benzamide] | 210
23 | CS(=O)(=O)Nc1cccc(C2CCC(N3CC(NC(=O)CNC(=O)c4cccc(C(F)(F)F)c4)C3)CC2)n1 (stereo not drawn) [Example 26, N-({1-[4-(6-Methanesulfonylamino-pyridin-2-yl)-cyclohexyl]-azetidin-3-ylcarbamoyl}-methyl)-3-trifluoromethyl-benzamide] | 840
24 | Nc1cccc(C2CCC(N3CC(NC(=O)CNC(=O)c4ccc(F)c(C(F)(F)F)c4)C3)CC2)n1 (stereo not drawn) [Example 28, N-({1-[4-(6-Amino-pyridin-2-yl)-cyclohexyl]-azetidin-3-ylcarbamoyl}-methyl)-4-fluoro-3-trifluoromethyl-benzamide] | 89
25 | CNc1ccncc1C1CCC(N2CC(NC(=O)CNC(=O)c3cccc(C(F)(F)F)c3)C2)CC1 (stereo not drawn) [Example 29a, N-({1-[4-(4-Methylamino-pyridin-3-yl)-cyclohexyl]-azetidin-3-ylcarbamoyl}-methyl)-3-trifluoromethyl-benzamide] | 1200
26 | CN(C)c1ccncc1C1CCC(N2CC(NC(=O)CNC(=O)c3cccc(C(F)(F)F)c3)C2)CC1 (stereo not drawn) [Example 29b, N-({1-[4-(4-Dimethylamino-pyridin-3-yl)-cyclohexyl]-azetidin-3-ylcarbamoyl}-methyl)-3-trifluoromethyl-benzamide] | 10000
27 | Nc1cncc(C2CCC(N3CC(NC(=O)CNC(=O)c4cccc(C(F)(F)F)c4)C3)CC2)c1 (stereo not drawn) [Example 32, N-({1-[4-(5-Amino-pyridin-3-yl)-cyclohexyl]-azetidin-3-ylcarbamoyl}-methyl)-3-trifluoromethyl-benzamide] | 320
28 | Nc1ccnc(C2CCC(N3CC(NC(=O)CNC(=O)c4cccc(C(F)(F)F)c4)C3)CC2)c1 (stereo not drawn) [Example 33, N-({1-[4-(4-Amino-pyridin-2-yl)-cyclohexyl]-azetidin-3-ylcarbamoyl}-methyl)-3-trifluoromethyl-benzamide] | 250
29 | Nc1cccc(C2CCC(N3CC(NC(=O)CNC(=O)c4cc(F)cc(C(F)(F)F)c4)C3)CC2)n1 (stereo not drawn) [Example 34, N-({1-[4-(6-Amino-pyridin-2-yl)-cyclohexyl]-azetidin-3-ylcarbamoyl}-methyl)-3-fluoro-5-trifluoromethyl-benzamide] | 120
30 | CCn1cc(C2CCC(N3CC(NC(=O)CNC(=O)c4cccc(C(F)(F)F)c4)C3)CC2)ccc1=O (stereo not drawn) [Example 39a, N-({1-[4-(1-Ethyl-6-oxo-1,6-dihydro-pyridin-3-yl)-cyclohexyl]-azetidin-3-ylcarbamoyl}-methyl)-3-trifluoromethyl-benzamide] | 37

— US8269015B2, “4-azetidinyl-1-heteroaryl-cyclohexane antagonists of CCR2” (Janssen Pharmaceutica N.V., priority 2009, dated 2012)
